{"source": "patent USRE50724E1", "about": "“4-membered ring carboxamides used as nematicides” (SYNGENTA CROP PROTECTION AG, priority 2013, dated 2026)"}
{"test_system": "Heterodera schachtii", "experiment": "Heterodera schachtii (sugar beet cyst nematode), nematicide, contact activity: juvenile paralysis in 16-well assay plates", "assay_type": "in vivo", "conditions": "200 ppm, approx. 500 juveniles per well, 24 hours incubation at 25° C. in darkness, read-out: nematode immobilization compared to the untreated control", "protocol": "Heterodera schachtii (Sugar Beet Cyst Nematode), Nematicide, Contact Activity\nThe tested application rate of each compound was 200 ppm. All solutions were brought to a concentration of 400 ppm, respectively, as they were subsequently diluted by adding the equivalent amount of water containing juvenile nematodes. After preparation of the suspensions, 1 ml of each suspension and concentration was transferred to 16-well assay plates with a total of three replicates per treatment. Approximately 500 juveniles of Heterodera schachtii were added in 1 ml of water to each well. Nematodes in water served as controls. The plates were placed in a dark box and stored at room temperature. Nematode paralysis was determined after 24 hours incubation at 25° C. in darkness.", "units": {"pest or weed control at 200 ppm": "%"}}
{"compound": "O=C(N[C@H]1CC[C@H]1c1ccc(Cl)cc1Cl)c1ccsc1C(F)(F)F", "note": "[Compound 61.97, N-[(1S,2S)-2-(2,4-dichlorophenyl)cyclobutyl]-2-(trifluoromethyl)thiophene-3-carboxamide]", "pest or weed control at 200 ppm": "> 75"}
{"compound": "O=C(N[C@H]1CC[C@H]1c1ccc(Cl)cc1Cl)c1ncsc1Br", "note": "[Compound 61.98, 5-bromo-N-[(1S,2S)-2-(2,4-dichlorophenyl)cyclobutyl]-1,3-thiazole-4-carboxamide]", "pest or weed control at 200 ppm": "> 75"}
{"compound": "Cc1cccnc1C(=O)N[C@H]1CC[C@H]1c1ccc(F)cc1F", "note": "[Compound 61.108, N-[(1S,2S)-2-(2,4-difluorophenyl)cyclobutyl]-3-methylpyridine-2-carboxamide]", "pest or weed control at 200 ppm": "> 75"}
{"compound": "Cc1ccccc1C(=O)N[C@H]1CC[C@H]1c1ccc(F)cc1F", "note": "[Compound 61.109, N-[(1S,2S)-2-(2,4-difluorophenyl)cyclobutyl]-2-methylbenzamide]", "pest or weed control at 200 ppm": "> 75"}
{"compound": "O=C(N[C@H]1CC[C@H]1c1ccc(F)cc1F)c1ncccn1", "note": "[Compound 61.110, N-[(1S,2S)-2-(2,4-difluorophenyl)cyclobutyl]pyrimidine-2-carboxamide]", "pest or weed control at 200 ppm": "> 75"}
{"compound": "O=C(N[C@H]1CC[C@H]1c1ccc(F)cc1F)c1ccccc1Cl", "note": "[Compound 61.113, 2-chloro-N-[(1S,2S)-2-(2,4-difluorophenyl)cyclobutyl]benzamide]", "pest or weed control at 200 ppm": "> 75"}
{"compound": "O=C(N[C@H]1CC[C@H]1c1ccc(F)cc1F)c1cnccc1C(F)(F)F", "note": "[Compound 61.114, N-[(1S,2S)-2-(2,4-difluorophenyl)cyclobutyl]-4-(trifluoromethyl)pyridine-3-carboxamide]", "pest or weed control at 200 ppm": "> 75"}
{"compound": "O=C(N[C@H]1CC[C@H]1c1ccc(F)cc1F)c1ccccc1Br", "note": "[Compound 61.116, 2-bromo-N-[(1S,2S)-2-(2,4-difluorophenyl)cyclobutyl]benzamide]", "pest or weed control at 200 ppm": "> 75"}
{"compound": "O=C(N[C@H]1CC[C@H]1c1ccc(F)cc1F)c1c(F)cccc1Cl", "note": "[Compound 61.117, 2-chloro-N-[(1S,2S)-2-(2,4-difluorophenyl)cyclobutyl]-6-fluorobenzamide]", "pest or weed control at 200 ppm": "> 75"}
{"compound": "Cc1cccc(F)c1C(=O)N[C@H]1CC[C@H]1c1ccc(F)cc1F", "note": "[Compound 61.118, N-[(1S,2S)-2-(2,4-difluorophenyl)cyclobutyl]-2-fluoro-6-methylbenzamide]", "pest or weed control at 200 ppm": "> 75"}
{"compound": "Cc1nccnc1C(=O)N[C@H]1CC[C@H]1c1ccc(F)cc1F", "note": "[Compound 61.119, N-[(1S,2S)-2-(2,4-difluorophenyl)cyclobutyl]-3-methylpyrazine-2-carboxamide]", "pest or weed control at 200 ppm": "> 75"}
{"compound": "O=C(N[C@H]1CC[C@H]1c1ccc(F)cc1F)c1ccccc1F", "note": "[Compound 61.121, N-[(1S,2S)-2-(2,4-difluorophenyl)cyclobutyl]-2-fluorobenzamide]", "pest or weed control at 200 ppm": "> 75"}
{"compound": "O=C(N[C@H]1CC[C@H]1c1ccc(F)cc1F)c1cncnc1C(F)(F)F", "note": "[Compound 61.122, N-[(1S,2S)-2-(2,4-difluorophenyl)cyclobutyl]-4-(trifluoromethyl)pyrimidine-5-carboxamide]", "pest or weed control at 200 ppm": "> 75"}
{"compound": "O=C(N[C@H]1CC[C@H]1c1ccc(F)cc1F)c1ncccc1F", "note": "[Compound 61.124, N-[(1S,2S)-2-(2,4-difluorophenyl)cyclobutyl]-3-fluoropyridine-2-carboxamide]", "pest or weed control at 200 ppm": "> 75"}
{"compound": "O=C(N[C@H]1CC[C@H]1c1ccc(F)cc1F)c1ccccc1I", "note": "[Compound 61.125, N-[(1S,2S)-2-(2,4-difluorophenyl)cyclobutyl]-2-iodobenzamide]", "pest or weed control at 200 ppm": "> 75"}
{"compound": "Cn1cccc1C(=O)N[C@H]1CC[C@H]1c1ccc(F)cc1F", "note": "[Compound 61.126, N-[(1S,2S)-2-(2,4-difluorophenyl)cyclobutyl]-1-methylpyrrole-2-carboxamide]", "pest or weed control at 200 ppm": "> 75"}
{"compound": "Cn1cc(C(=O)N[C@H]2CC[C@H]2c2ccc(F)cc2F)c(C(F)F)n1", "note": "[Compound 61.127, 3-(difluoromethyl)-N-[(1S,2S)-2-(2,4-difluorophenyl)cyclobutyl]-1-methylpyrazole-4-carboxamide]", "pest or weed control at 200 ppm": "> 75"}
{"compound": "O=C(N[C@H]1CC[C@H]1c1ccc(F)cc1F)c1sccc1Cl", "note": "[Compound 61.129, 3-chloro-N-[(1S,2S)-2-(2,4-difluorophenyl)cyclobutyl]thiophene-2-carboxamide]", "pest or weed control at 200 ppm": "> 75"}
{"compound": "O=C(N[C@H]1CC[C@H]1c1ccc(F)cc1F)c1c(F)cccc1C(F)(F)F", "note": "[Compound 61.131, N-[(1S,2S)-2-(2,4-difluorophenyl)cyclobutyl]-2-fluoro-6-(trifluoromethyl)benzamide]", "pest or weed control at 200 ppm": "> 75"}
{"compound": "O=C(N[C@H]1CC[C@H]1c1ccc(F)cc1F)c1cccnc1Cl", "note": "[Compound 61.133, 2-chloro-N-[(1S,2S)-2-(2,4-difluorophenyl)cyclobutyl]pyridine-3-carboxamide]", "pest or weed control at 200 ppm": "> 75"}
{"compound": "O=C(N[C@H]1CC[C@H]1c1ccc(F)cc1F)c1ncsc1Br", "note": "[Compound 61.136, 5-bromo-N-[(1S,2S)-2-(2,4-difluorophenyl)cyclobutyl]-1,3-thiazole-4-carboxamide]", "pest or weed control at 200 ppm": "> 75"}
{"compound": "O=C(N[C@H]1CC[C@H]1c1ccc(F)cc1F)c1ccsc1C(F)(F)F", "note": "[Compound 61.137, N-[(1S,2S)-2-(2,4-difluorophenyl)cyclobutyl]-2-(trifluoromethyl)thiophene-3-carboxamide]", "pest or weed control at 200 ppm": "> 75"}
{"compound": "Cc1ncccc1C(=O)N[C@H]1CC[C@H]1c1ccc(F)cc1F", "note": "[Compound 61.140, N-[(1S,2S)-2-(2,4-difluorophenyl)cyclobutyl]-2-methylpyridine-3-carboxamide]", "pest or weed control at 200 ppm": "> 75"}
{"compound": "O=C(N[C@H]1CC[C@H]1c1ccc(F)cc1F)c1ncccc1Cl", "note": "[Compound 61.141, 3-chloro-N-[(1S,2S)-2-(2,4-difluorophenyl)cyclobutyl]pyridine-2-carboxamide]", "pest or weed control at 200 ppm": "> 75"}
{"compound": "O=C(N[C@H]1CC[C@H]1c1ccc(F)cc1F)c1sccc1Br", "note": "[Compound 61.143, 3-bromo-N-[(1S,2S)-2-(2,4-difluorophenyl)cyclobutyl]thiophene-2-carboxamide]", "pest or weed control at 200 ppm": "> 75"}
{"compound": "Cc1occc1C(=O)N[C@H]1CC[C@H]1c1ccc(F)cc1F", "note": "[Compound 61.144, N-[(1S,2S)-2-(2,4-difluorophenyl)cyclobutyl]-2-methylfuran-3-carboxamide]", "pest or weed control at 200 ppm": "> 75"}
{"compound": "O=C(N[C@H]1CC[C@H]1c1ccc(F)cc1F)c1ncccc1Br", "note": "[Compound 61.146, 3-bromo-N-[(1S,2S)-2-(2,4-difluorophenyl)cyclobutyl]pyridine-2-carboxamide]", "pest or weed control at 200 ppm": "> 75"}
{"compound": "O=C(N[C@H]1CC[C@H]1c1ccc(F)cc1F)c1ncccc1C(F)(F)F", "note": "[Compound 61.151, N-[(1S,2S)-2-(2,4-difluorophenyl)cyclobutyl]-3-(trifluoromethyl)pyridine-2-carboxamide]", "pest or weed control at 200 ppm": "> 75"}
{"compound": "O=C(N[C@H]1CC[C@H]1c1ccc(Cl)cc1Cl)c1nccnc1Br", "note": "[Compound 61.162, 3-bromo-N-[(1S,2S)-2-(2,4-dichlorophenyl)cyclobutyl]pyrazine-2-carboxamide]", "pest or weed control at 200 ppm": "> 75"}
{"compound": "O=C(N[C@H]1CC[C@H]1c1ccc(Cl)cc1Cl)c1nnccc1C(F)(F)F", "note": "[Compound 61.167, N-[(1S,2S)-2-(2,4-dichlorophenyl)cyclobutyl]-4-(trifluoromethyl)pyridazine-3-carboxamide]", "pest or weed control at 200 ppm": "> 75"}
